Laboratory results published in ChEMBL document CHEMBL1133349, “Novel phenylpiperazine derivatives as dual cytokine regulators with TNF-alpha suppressing and IL-10 augmenting activity” (Bioorg Med Chem Lett, 2000).

Assays:
Mus musculus [1] = experiment: Ability to inhibit TNF-alpha in LPS-stimulated mice after oral administration by ELISA assay; type: functional; set-up: concentration or dose not given beside the values
Mus musculus [2] = experiment: Ability to augment IL-10 in LPS-stimulated mice after oral administration by ELISA assay; type: functional; set-up: concentration or dose not given beside the values
[3] = biological target: T1, 5-hydroxytryptamine receptor 1A (Rattus norvegicus, UniProt P19327); experiment: Binding affinity towards 5-hydroxytryptamine 1A receptor
T1 sequence (P19327 whole entry): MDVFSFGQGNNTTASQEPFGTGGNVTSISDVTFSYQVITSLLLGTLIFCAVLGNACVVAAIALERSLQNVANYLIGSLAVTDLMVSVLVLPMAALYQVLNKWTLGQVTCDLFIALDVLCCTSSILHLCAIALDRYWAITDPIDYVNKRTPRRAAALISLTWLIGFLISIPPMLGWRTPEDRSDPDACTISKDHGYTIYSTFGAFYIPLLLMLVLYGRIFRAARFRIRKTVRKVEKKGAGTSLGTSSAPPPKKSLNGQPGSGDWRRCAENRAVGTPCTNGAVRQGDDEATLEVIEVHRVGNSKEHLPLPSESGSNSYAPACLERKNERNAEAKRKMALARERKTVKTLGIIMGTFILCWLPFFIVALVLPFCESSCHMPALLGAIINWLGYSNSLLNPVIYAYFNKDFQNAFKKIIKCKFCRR

[4] = biological target: Serotonin 2 (5-HT2) receptor (Homo sapiens, UniProt P41595+P28223+P28335); experiment: Binding affinity towards 5-hydroxytryptamine 2 receptor; type: protein assay
[5] = biological target: T2, Adrenergic receptor alpha-1 (Rattus norvegicus, UniProt P15823+P23944+P43140); experiment: Binding affinity towards Alpha-1 adrenergic receptor; type: protein assay
T2 sequence (P15823 whole entry): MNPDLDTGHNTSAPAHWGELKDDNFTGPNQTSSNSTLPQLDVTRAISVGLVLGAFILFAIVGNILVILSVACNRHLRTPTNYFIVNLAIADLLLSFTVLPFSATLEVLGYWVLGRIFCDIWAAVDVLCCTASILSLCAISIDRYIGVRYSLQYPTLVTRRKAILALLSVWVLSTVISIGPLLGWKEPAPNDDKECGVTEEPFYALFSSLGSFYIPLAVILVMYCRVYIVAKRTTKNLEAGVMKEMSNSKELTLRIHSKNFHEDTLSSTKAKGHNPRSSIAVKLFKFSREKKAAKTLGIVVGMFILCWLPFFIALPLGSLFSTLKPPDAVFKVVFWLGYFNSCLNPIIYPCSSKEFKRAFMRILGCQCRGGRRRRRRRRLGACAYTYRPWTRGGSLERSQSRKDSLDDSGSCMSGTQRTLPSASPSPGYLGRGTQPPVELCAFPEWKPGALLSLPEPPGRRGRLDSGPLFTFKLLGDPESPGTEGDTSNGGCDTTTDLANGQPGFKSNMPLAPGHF
T2 sequence (P23944 whole entry): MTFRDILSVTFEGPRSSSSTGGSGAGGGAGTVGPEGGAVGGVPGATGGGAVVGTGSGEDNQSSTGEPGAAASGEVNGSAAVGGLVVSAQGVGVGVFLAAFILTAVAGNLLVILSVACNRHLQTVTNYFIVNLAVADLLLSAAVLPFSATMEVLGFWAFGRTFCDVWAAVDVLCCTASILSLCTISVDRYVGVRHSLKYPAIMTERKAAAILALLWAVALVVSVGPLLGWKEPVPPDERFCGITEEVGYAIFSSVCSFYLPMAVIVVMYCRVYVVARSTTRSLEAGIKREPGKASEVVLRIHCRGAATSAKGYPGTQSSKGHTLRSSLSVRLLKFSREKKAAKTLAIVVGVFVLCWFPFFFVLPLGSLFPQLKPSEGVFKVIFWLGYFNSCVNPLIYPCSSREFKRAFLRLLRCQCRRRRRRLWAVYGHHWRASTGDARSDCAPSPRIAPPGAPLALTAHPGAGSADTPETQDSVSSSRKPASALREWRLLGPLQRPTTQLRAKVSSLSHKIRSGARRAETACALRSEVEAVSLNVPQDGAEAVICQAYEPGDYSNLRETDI
T2 sequence (P43140 whole entry): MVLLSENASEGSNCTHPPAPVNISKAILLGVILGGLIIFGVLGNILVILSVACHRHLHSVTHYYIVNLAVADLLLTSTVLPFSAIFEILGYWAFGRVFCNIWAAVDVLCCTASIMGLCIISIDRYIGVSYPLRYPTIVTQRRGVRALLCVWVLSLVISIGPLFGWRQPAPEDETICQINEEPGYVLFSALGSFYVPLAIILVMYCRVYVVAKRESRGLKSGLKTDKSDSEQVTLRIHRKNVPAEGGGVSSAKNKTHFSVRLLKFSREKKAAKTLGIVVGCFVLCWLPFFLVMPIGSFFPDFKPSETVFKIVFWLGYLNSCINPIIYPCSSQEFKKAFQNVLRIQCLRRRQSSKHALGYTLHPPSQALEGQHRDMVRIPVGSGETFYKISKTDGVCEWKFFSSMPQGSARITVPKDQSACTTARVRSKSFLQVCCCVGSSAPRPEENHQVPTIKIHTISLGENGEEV

D(2) dopamine receptor = D(2) dopamine receptor (Bos taurus, UniProt P20288); experiment: Binding affinity towards Dopamine receptor D2
Chain of D(2) dopamine receptor (P20288 whole entry): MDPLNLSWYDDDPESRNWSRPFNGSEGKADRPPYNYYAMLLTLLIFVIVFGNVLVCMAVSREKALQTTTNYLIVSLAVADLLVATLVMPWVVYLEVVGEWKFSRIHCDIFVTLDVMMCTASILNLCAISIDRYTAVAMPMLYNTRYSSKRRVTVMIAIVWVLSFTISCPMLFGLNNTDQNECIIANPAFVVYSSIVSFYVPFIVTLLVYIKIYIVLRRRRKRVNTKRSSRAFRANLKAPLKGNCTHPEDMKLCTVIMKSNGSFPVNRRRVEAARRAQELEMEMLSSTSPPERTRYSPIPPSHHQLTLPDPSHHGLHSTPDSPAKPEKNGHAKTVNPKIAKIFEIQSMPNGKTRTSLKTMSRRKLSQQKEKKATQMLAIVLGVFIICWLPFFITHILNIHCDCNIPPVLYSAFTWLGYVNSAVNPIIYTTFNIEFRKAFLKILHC

[6] = Oral bioavailability at a dose of 30 mg/kg in rats; type: ADME, organism-based; details: rat, in vivo
Mus musculus [7] = species: Mus musculus; experiment: Dose that prevented shock death in mice; type: functional
Mus musculus [8] = experiment: Ability of compound to prevent shock death in mice expressed as no of mice that survived out of 10 at a dose of 10 mg/kg; type: functional

Ki [3] [nM]	Ki [4] [nM]	Ki [5] [nM]	Ki (D(2) dopamine receptor) [nM]	SMILES	Inhibition (Mus musculus [1]) [%]	IL-10 level (% of control) (Mus musculus [2]) [%]	bioavailability [6] [%]	Dose (Mus musculus [7]) [mg/kg]	Survival (Mus musculus [8])
				N/C(S)=N/Cc1ccc(CCCCN2CCN(c3ccccc3)CC2)cc1	69	129			
				N=C(N)NCc1ccc(CCCCN2CCN(c3ccccc3)CC2)cc1	39	124			
6	48	4.6	49	CC(=O)NCc1ccc(CCCCN2CCN(c3ccccc3)CC2)cc1	94	1337			
140	> 1000	> 1000	> 1000	CC(=O)NCc1ccc(CN2CCN(c3ccccc3)CC2)cc1	89	376			
				CC(=O)NCCCc1ccc(CCCCN2CCN(c3ccccc3)CC2)cc1	68	146			
> 1000	> 1000	> 1000	> 1000	CC(=O)NCc1ccc(CN2CCN(c3ccc(F)cc3)CC2)cc1	87	1494			
				NC(=O)NCc1ccc(CCCCN2CCN(c3ccccc3)CC2)cc1	85	253			
> 1000	> 1000	> 1000	> 1000	COc1ccc(N2CCN(Cc3ccc(CNC(C)=O)cc3)CC2)cc1	74	449			
				CC(=O)NCCc1ccc(CCCCN2CCN(c3ccccc3)CC2)cc1	76	292			
3.8	37	7.9	5.5	Nc1nc(-c2ccc(CCCCN3CCN(c4ccccc4)CC3)cc2)cs1	87	382			
> 1000	> 1000	> 1000	> 1000	CC(=O)NCc1ccc(CN2CCN(c3ccc(Cl)cc3)CC2)cc1	65	361			
				CC(=O)Nc1ccc(CCCCN2CCN(c3ccccc3)CC2)cc1	88	585			
33	160	6.4	340	CC(=O)NCc1ccc(CCCN2CCN(c3ccccc3)CC2)cc1	97	1805			
2.9	130	69	170	CC(=O)NCc1ccc(CCN2CCN(c3ccccc3)CC2)cc1	96	2784			
				c1ccc(CCCCN2CCN(c3ccccc3)CC2)cc1	77	337			

SMILES	Ki [3] [nM]	Ki [4] [nM]	Ki [5] [nM]	Ki (D(2) dopamine receptor) [nM]	Inhibition (Mus musculus [1]) [%]	IL-10 level (% of control) (Mus musculus [2]) [%]	bioavailability [6] [%]	Dose (Mus musculus [7]) [mg/kg]	Survival (Mus musculus [8])
CC(=O)NCc1ccc(CN2CCN(c3ccc(F)cc3F)CC2)cc1		> 1000	> 1000	> 1000	91	2293	95.5	10	8
